# Data taken from patent US20260158002A1, “APPLICATION OF COMPOSITION CONTAINING EDARAVONE AND DEXBORNEOL IN IMPROVING OR TREATING COGNITIVE IMPAIRMENT” (NEURODAWN PHARMACEUTICAL CO., LTD., priority 2021, published 2026).
# Tests used:
# [1] = tested on: rat model of L-methionine-induced vascular dementia; settings: intraperitoneal 6 mg/kg/day for 9 consecutive weeks; cited from earlier work
# primary cortical neurons = assay: Aβ1-42-induced primary cortical neuronal injury test (Luminescent Cell Viability Assay); assay type: cell-based, rat; settings: single agent, pre-incubation 30 min before oligomerized Aβ1-42 50 μM, 24 h; edaravone 3.7 to 100 μM, dexborneol 1.2 to 100 μM; vs DMSO group
# Experimental: A SD pregnant rat at 18 days of pregnancy was sacrificed by cervical dislocation, the uteruses of the rat were dissected, the brain of E18 fetal rat was taken out, the cerebral cortical tissue of the fetal rat was isolated into an ice-cold DMEM, the meninge and blood vessels were removed from the cortical tissue under a dissecting microscope, the cortical tissue was transferred to an ice-cold DMEM and minced (about 1 mm^3), and digested with trypsin at 37° C. for 10 min, the digestion was terminated with FBS, a Pasteur pipette was used to perform gentle pipetting and dispersing, and screening was then performed using a 200-mesh sieve. […] The cells were counted by a hemocytometer, diluted to 5×10^5 cells/ml with a complete medium, and seeded in a 96-well plate coated with PDL (100 μL/well) for culture. […]
# The medium of the in vitro matured primary neurons was replaced with a complete medium containing different concentrations (1.2, 3.7, 11.1, 33.3, 100.0 μM) of edaravone (E), dexborneol (B) or an edaravone and dexborneol composition (EB), after incubation at 37° C. for 30 min, oligomerized Aβ1-42 (final concentration of 50 μM) was added, the culture was continued for 24 h, and the neuronal viability was tested. […] LUMbackground is the background reading of the cell-free medium well into which Luminescent Cell Viability Assay kit is added. […]
# Aβ1-42 = Aβ1-42 (Homo sapiens, UniProt P05067); settings: in vitro; concentration range of 0.156 to 5 μM; cited from earlier work
# Sequence of Aβ1-42 (P05067 672-713 limits assumed): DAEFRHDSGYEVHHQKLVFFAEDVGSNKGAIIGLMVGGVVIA
# ICV-STZ model rats = assay: Morris water maze test in rats of intracerebroventricular STZ-induced dementia; assay type: in vivo, rat; settings: edaravone 6 mg/kg (plus dexborneol 0.8, 1.2 or 2.4 mg/kg), intraperitoneal, once daily
# Experimental: The experimental animals were divided into […]: sham surgery group, model group, edaravone group (6 mg/kg), edaravone and dexborneol (7.5:1) composition (edaravone 6 mg/kg, dexborneol 0.8 mg/kg), edaravone and dexborneol (5:1) composition (edaravone 6 mg/kg, dexborneol 1.2 mg/kg), and edaravone and dexborneol (2.5:1) composition (edaravone 6 mg/kg, dexborneol 2.4 mg/kg). The animals in the model group and sham surgery groups were given the corresponding volume of blank solvent (8% propylene glycol), all administrations were intraperitoneal injection administrations, and the administration volume is 10 ml/kg.
# In addition to the sham surgery group, animals with successful surgery were randomly assigned to the model group and administration groups in order. […]
# This trial lasted for 4 days. The platform was fixed in the target quadrant (SE quadrant) during the trial, water entry was performed from the water entry points of the four quadrants, respectively, animals were gently placed in the water facing the sign on the pool wall during training, the time (escape latency) for the animal to find the platform was recorded, and then the animal was allowed to stay on the platform for 10 s. […]
# [2] = tested on: APP/PS1 transgenic mouse model; settings: cited from earlier work
smiles,measurement,setting,value
"CC1=NN(c2ccccc2)C(=O)C1 [edaravone, 3-methyl-1-phenyl-2-pyrazolin-5-one]",spatial learning and memory in eight-arm water maze test,[1],can significantly improve the spatial learning and memory of the model rats in eight-arm water maze test
same,"inhibiting Aβ-induced neurotoxicity, increasing the cell viability",primary cortical neurons,capable of inhibiting Aβ-induced neurotoxicity in a concentration-dependent manner
same,aggregation of Aβ1-42 monomer as Aβ fibrils and disaggregation of Aβ fibrils,Aβ1-42,capable of inhibiting the aggregation of Aβ1-42 monomer as Aβ fibrils and disaggregating Aβ fibrils in a concentration-dependent manner
same,"escape latency in water maze hidden platform trial, vs model group",ICV-STZ model rats,could significantly shorten the escape latency
same,"residence time in the target quadrant in water maze space probe trial, vs model group",ICV-STZ model rats,significantly prolonged
same,deficits in the cognitive function in water maze test,"[2]; APP/PS1 mice, 12.6 mg/kg intraperitoneal twice a week, prophylactic (3 to 9 months) and therapeutic (9 to 12 months)",can improve the deficits in the cognitive function in water maze test
same,cognitive function of aged transgenic mice,"[2]; APP/PS aged mice (14 to 17 months), oral with drinking water 8, 24 and 72 mg/kg/day",significantly improves the cognitive function of aged transgenic mice
same,Aβ plaque deposition within the brain and cognitive function,"[2]; mice aged 3-12 months, oral with drinking water 33.2 mg/kg/day",can also reduce Aβ plaque deposition within the brain and improve the cognitive function of mice
